Results published in US20230310542A1, “EPIGENETIC MODIFIERS TO TREAT RETINAL DEGENERATIONS” (priority 2022, published 2023).

How the values were obtained:
RP = settings: previous studies, cited from earlier work; for protective effect on RP: non-selective HDAC inhibitors
RGC = settings: previous study; cited from earlier work
rd10 mice = experiment: Rod photoreceptor preservation in rd10 mice (photoreceptor rows in ONL, immunofluorescence); type: in vivo, mouse
Experimental: (§1) All inhibitors were diluted in 0.9% bacteriostatic sodium chloride (saline).
(§2) Retinas were fixed in 4% paraformaldehyde overnight at 4° C., washed in PBS, incubated in 5% sucrose/PBS for 30 min and then cryopreserved in 20% sucrose/PBS overnight at 4° C. Retinas were embedded in 2:1 mix of 20% sucrose and OCT (Sakura Finetek Torrance, CA) and stored at −80° C. Blocks with tissue samples were sectioned to 7-10 μm on a Cryostat Microtome HM550 (Thermo Fisher Scientific) and stored at −20° C. Antigen retrieval was performed by incubating the slides in 10 mM sodium citrate pH 6 for 30 min at 80° C. Double labeling immunohistochemistry was performed using fluorescent Alexa Fluor-conjugated secondary antibodies diluted 1:800 (Invitrogen, Carlsbad, California). Primary antibodies were diluted as follow: anti-H3K4me2 1:600, anti-H3K9me2 1:600, anti-RHO 1:50, anti-OPN1SW 1:400, anti-GFAP 1:1000, anti-IBA1 1:450 (AifI gene). […] The acquisition parameters were maintained constant for each set of experiments. Fluorescence intensity was assessed using ImageJ software (Bethesda, MD).

rd10 mice retina = experiment: RT-PCR retinal gene expression, rd10 mice; type: in vivo, mouse
Experimental: (§3) Whole retinas were isolated from animals by removing the sclera and most of the retinal pigmented epithelium (RPE) layer under PBS. The right eye retinas from each animal were taken for RNA extraction, cDNA preparation and RT-PCR. Immediately after isolation, tissue was flash frozen in liquid nitrogen and stored at −80° C. Left eye retinas from each animal were subjected to fixation, cryopreservation, sectioning, and immunofluorescence staining. RNA extraction and purification followed the manufacturer's protocol from RNeasy Mini Kit and RNA shredder (Qiagen). […] Primers purchased from Integrated DNA Technologies (IDT). For quantitative real-time PCR we used 2× iQ-SYBR Green PCR supermix from Bio-Rad. Samples in triplicate were run on an iQ5 Multicolor Real Time PCR Detection System (Bio-Rad). The relative expression level for each gene was calculated by the 2-ΔΔCt method and normalized to GAPDH.

WT mice retina = experiment: RT-PCR retinal gene expression, WT mice; type: in vivo, mouse
Experimental: as §3

rod nuclei = settings: WT + TCP, PN24
Experimental: as §2
The number of heterochromatin foci in rod nuclei was calculated to estimate the level of rod photoreceptor maturation in retinas of animals treated with LSD1 inhibitors (FIG. 10B).

H3K4me2, H3K9me2 = experiment: Anti-H3K4me2 and anti-H3K9me2 Western blot of WT retina; type: in vivo, mouse; settings: WT mice treated PN9 till PN24
Experimental: Both retinas from one animal were flash frozen together in liquid nitrogen and stored at −80° C. Samples for SDS-PAGE were prepared by resuspended retinas in 50 μl PBS. Laemmli sample buffer was added, samples were boiled for 10 min, resolved on Criterion TGX Precast Gel AnyKD (Bio-Rad), transferred to nitrocellulose membrane, and immunoblotted with antibodies anti-H3K9me2 or anti-H3K4me2 diluted 1:5000; anti-ACTB diluted 1:10000; anti-PDE6B (1:500). Secondary goat anti-rabbit/mouse HRP (Jackson Immuno-Research Laboratory, West Grove, PA) was diluted 1:5000. An ECL western blot detection system (Thermo Fisher Scientific) was used to visualize the bound of the primary antibody.

rd10 = settings: TCP PN9 till PN24
Experimental: Retinas were fixed in 4% paraformaldehyde overnight at 4° C., washed in PBS, incubated in 5% sucrose/PBS for 30 min and then cryopreserved in 20% sucrose/PBS overnight at 4° C. Retinas were embedded in 2:1 mix of 20% sucrose and OCT (Sakura Finetek Torrance, CA) and stored at −80° C. Blocks with tissue samples were sectioned to 7-10 μm on a Cryostat Microtome HM550 (Thermo Fisher Scientific) and stored at −20° C. TUNEL assay was carried out using the In situ Cell death detection kit, Fluorescein from Roche (Germany) according to manufacturer's instruction.

GFAP, IBA1 = experiment: Immunofluorescence labeling of GFAP and IBA1 in retina sections; type: in vivo, mouse; settings: rd10, treated PN9 till PN24; levels remained above WT
Experimental: Fluorescence intensity was assessed using ImageJ software (Bethesda, MD).

WT mice = settings: TCP PN9 till PN24
Experimental: as §1, §2

rd1 mice = settings: previous studies; cited from earlier work

Structure (SMILES): CCCC(CCC)C(=O)O [VPA]
- protective effect on RP (RP): some protective effect
- outcome as therapeutic agent for retinal degeneration (RP): mixed results

Structure (SMILES): Nc1cc(F)ccc1NC(=O)/C=C/c1cnn(C/C=C/c2ccccc2)c1 [RGFP966]
- RGC death (RGC): protected against RGC death

Structure (SMILES): CC(/C=C/C(=O)NO)=C\[C@@H](C)C(=O)c1ccc(N(C)C)cc1 [TSA]
- protective effect on RP (RP): some protective effect

Structure (SMILES): N[C@@H]1C[C@H]1c1ccccc1 (relative stereo) [TCP, trans-2-Phenylcyclopropylamine]
- rows of photoreceptors remaining in the ONL at PN24 (rd10 mice; TCP 10 mg/kg i.p. daily PN9 till PN24): 7 rows
- expression of rod photoreceptor genes relative to GAPDH (rd10 mice retina; treated PN9 till PN24, assayed PN24, vs saline): increased expression of almost all rod genes
- expression of cone genes Thrb or Gnat2 (rd10 mice retina; treated PN9 till PN24 vs saline): slightly up-regulated
- expression of rod photoreceptor genes (WT mice retina; WT mice treated PN9 till PN24): no changes
- expression of transcription factors of retina development and maturation (WT mice retina; WT retinas, treated PN9 till PN24): slightly increased expression
- rod nuclei with 3 foci (rod nuclei; WT saline 2%): 7%
- rod nuclei with two foci (rod nuclei; WT saline 43%): 51%
- rod nuclei with one focus (rod nuclei; WT saline 55%): 42%
- global levels of H3K4me2 (H3K4me2, H3K9me2): did not change significantly
- global levels of H3K9me2 (H3K4me2, H3K9me2): No changes
- dying cells by TUNEL staining vs control (rd10): no significant difference
- IBA1 labeling (microglia) (GFAP, IBA1): decreased
- ONL thickness (WT mice): significantly increased
- number of rows of rods (WT mice): did not change

Structure (SMILES): CCCC(=O)[O-].[Na+] [sodium butyrate]
- protective effect on RP (RP): some protective effect

Structure (SMILES): C/C=C1\NC(=O)[C@H]2CSSCC/C=C/[C@H](CC(=O)N[C@H](C(C)C)C(=O)N2)OC(=O)[C@H](C(C)C)NC1=O [romidepsin]
- rows of photoreceptor remaining in the ONL at PN24 (rd10 mice; romidepsin 0.2 mg/kg i.p. daily PN9 till PN24, saline control 2-3 rows): 8 rows

Structure (SMILES): Nc1nccc2c1ncn2[C@@H]1C=C(CO)[C@@H](O)[C@H]1O [DZNep, 3-deazaneplanocin A]
- retinal degeneration / photoreceptor loss in rd1 mouse (rd1 mice): delays in retinal degeneration
